From patent US9289398B2, “Methods for the production of functional protein from DNA having a nonsense mutation and the treatment of disorders associated therewith” (PTC Therapeutics, Inc., priority 2006, dated 2016)
Read-outs that look alike come from different tables or passages of the source.

Columns and labels:
Assay type in all cases: in vivo, human
[1] = Pharmacokinetics, CF Phase 2 preliminary analysis; details: for Cmax / AUC(0-t): both sexes, human, in vivo, oral; for AUC(0-t): read-out: AUC0-24
Description: 3-[5-(2-Fluoro-phenyl)-[1,2,4]oxadiazol-3-yl]-benzoic acid was provided in a formulation described herein.
The 3-[5-(2-fluoro-phenyl)-[1,2,4]oxadiazol-3-yl]-benzoic acid interim PK parameters from these 15 patients are described in Table 17.

[2] = Patient-reported changes in cystic fibrosis symptoms, CF Phase 2 interim analysis; details: of 15 CF patients in interim analysis
Description: In addition, although changes in patient's symptoms were not formally measured through the use of a quality-of-life questionnaire, trial investigators were requested to ask about changes in patients' cystic fibrosis symptoms. In the 15 patients included in the interim analysis, 6 reported general improvements in well being, 6 reported decrease in cough and 10 reported decreased mucus thickness and easier clearing of mucus.

[3] = Pharmacokinetics, DMD Phase 2 interim analysis; details: for Cmin: DMD patients, 4, 4, 8 mg/kg
Description: 3-[5-(2-Fluoro-phenyl)-[1,2,4]oxadiazol-3-yl]-benzoic acid is provided in a formulation described herein. Treatment is administered over 28 days for each treatment cohort. An initial cohort of patients are treated daily for 28 days with 3-[5-(2-fluoro-phenyl)-[1,2,4]oxadiazol-3-yl]-benzoic acid at a given dose level (e.g., 4-, 4-, and 8-mg/kg) TID. If the initial patients tolerate the drug, then a second cohort of patients receives 3-[5-(2-fluoro-phenyl)-[1,2,4]oxadiazol-3-yl]-benzoic acid at a higher dose level (e.g., 10-, 10-, and 20-mg/kg) TID. Thus, each patient receives a total of 84 doses of 3-[5-(2-fluoro-phenyl)-[1,2,4]oxadiazol-3-yl]-benzoic acid. After the end of 28 days of treatment, each patient is followed for an additional 28 days without treatment.
At each dose level, it is recommended that 3-[5-(2-fluoro-phenyl)-[1,2,4]oxadiazol-3-yl]-benzoic acid be taken TID at 6-, 6-, and 12-hour (±˜30 minutes) intervals. Ideally each dose is taken within ˜30 minutes after a meal (e.g., ˜7:00 AM after breakfast, ˜1:00 PM after lunch, and ˜7:00 PM after dinner). While it is realized that variations in dosing schedule may occur in the outpatient setting, it is recommended that the prescribed regimen (including dosing intervals and the relationship of dosing to meals) be followed closely on the days of PK sample collection. Clinical endpoints are evaluated using the procedures set forth above.
Six patients were administered 3-[5-(2-fluoro-phenyl)-[1,2,4]oxadiazol-3-yl]-benzoic acid TID in a regimen consisting of 4 mg/kg with breakfast, 4 mg/kg with lunch, and 8 mg/kg with supper, for a total daily dose of 16 mg/kg. All patients were ambulatory, but had characteristic signs and symptoms of DMD, including some degree of muscle dysfunction and elevated serum CK concentrations. […] These adverse events included diarrhea in 1 patient; abdominal pain in 1 patient; and flatulence in 2 patients. […] Treatment compliance was good, with patients taking >95% of the intended total drug treatment for 28 days at the lower dose level. […]

[4] = Safety and compliance, additional DMD Phase 2 study (26 boys)
Description: An additional Phase 2 study was carried out as follows to evaluate 3-[5-(2-fluoro-phenyl)-[1,2,4]oxadiazol-3-yl]-benzoic acid safety, compliance, PK, effects on full-length muscle dystrophin protein expression, and clinical activity in patients with nonsense-mutation-mediated DMD.
(§1) 3-[5-(2-fluoro-phenyl)-[1,2,4]oxadiazol-3-yl]-benzoic acid was administered orally for 28 days at dose levels of 4, 4, 8 mg/kg (low dose); 10, 10, 20 mg/kg (mid dose); and 20, 20, 40 mg/kg (high dose) after breakfast, lunch, and dinner, respectively. 26 boys (ages: 5-13 years; stop codons: 15 UGA, 6 UAG, 5 UAA; baseline serum CK: 8,645-49,500 IU; steroid use: 19/26) completed 3-[5-(2-fluoro-phenyl)-[1,2,4]oxadiazol-3-yl]-benzoic acid at the low (n=6) or mid (n=20) dose levels. […] Compliance was >98% for both dose levels. Day 1 and Day 28 PK indicate stable plasma exposures over time; however, exposures were lower than in 3-[5-(2-fluoro-phenyl)-[1,2,4]oxadiazol-3-yl]-benzoic acid-treated healthy adult volunteers and cystic fibrosis patients. […] Relative to baseline, post-treatment increases in in vivo dystrophin expression occurred in 4/6 (67%) (90% CI 27-94%) and 10/20 (50%) (90% C1-30-70%) boys at low and mid doses, respectively.

[5] = Plasma exposure, additional DMD Phase 2 study
Description: as §1
3-[5-(2-fluoro-phenyl)[1,2,4]oxadiazol-3-yl]-benzoic acid safely induces full-length dystrophin expression in vitro and in vivo and decreases serum CK levels in boys with nonsense-mutation-mediated DMD. […] Evaluation at the high dose level in 12 additional boys is ongoing.

serum CK = assay: Serum CK levels, DMD Phase 2; details: boys with nonsense-mutation-mediated DMD, 28 days
Description: Serum CK activity is assessed using a commercially available NADH-linked kinetic assay (Diagnostic Chemicals Ltd., Oxford, Conn.). Serum CK levels are measured prior to treatment, on day 1 (prior to first dose), day 7, day 14, day 21, and day 27 during the treatment period, and on day 42 and day 56 after treatment. Serum CK is increased in Duchenne muscular dystrophy and therefore is a readily measurable diagnostic marker for the disease and may serve as a potential biomarker for the pharmacological activity of the drug (Mendell et al., 1989, New Eng. J. Med. 320(24):1592-1597).
3-[5-(2-fluoro-phenyl)-[1,2,4]oxadiazol-3-yl]-benzoic acid was administered orally for 28 days at dose levels of 4, 4, 8 mg/kg (low dose); 10, 10, 20 mg/kg (mid dose); and 20, 20, 40 mg/kg (high dose) after breakfast, lunch, and dinner, respectively. 26 boys (ages: 5-13 years; stop codons: 15 UGA, 6 UAG, 5 UAA; baseline serum CK: 8,645-49,500 IU; steroid use: 19/26) completed 3-[5-(2-fluoro-phenyl)-[1,2,4]oxadiazol-3-yl]-benzoic acid at the low (n=6) or mid (n=20) dose levels. […] Compliance was >98% for both dose levels. Day 1 and Day 28 PK indicate stable plasma exposures over time; however, exposures were lower than in 3-[5-(2-fluoro-phenyl)-[1,2,4]oxadiazol-3-yl]-benzoic acid-treated healthy adult volunteers and cystic fibrosis patients. […]

[6] = 8 mg/kg, Cycle 1 lower dose 4, 4, 8 mg/kg, Day 1, N = 15, mean
[7] = 8 mg/kg, Cycle 1 lower dose 4, 4, 8 mg/kg, Day 14, N = 15, mean
[8] = 20 mg/kg, Cycle 2 higher dose 10, 10, 20 mg/kg, Day 1, N = 15, mean
[9] = 20 mg/kg, Cycle 2 higher dose 10, 10, 20 mg/kg, Day 14, N = 15, mean

O=C(O)c1cccc(-c2noc(-c3ccccc3F)n2)c1 [3-[5-(2-fluoro-phenyl)-[1,2,4]oxadiazol-3-yl]-benzoic acid]
Differences in PK parameters by gender ([1]; 15 CF patients): No differences | Cmin ([1]; Cycle 1 lower dose 4, 4, 8 mg/kg, Day 1, N = 15, mean): 1600 ng/mL | Cmin ([1]; Cycle 1 lower dose 4, 4, 8 mg/kg, Day 14, N = 15, mean): 1900 ng/mL | Cmin ([1]; Cycle 2 higher dose 10, 10, 20 mg/kg, Day 1, N = 15, mean): 5000 ng/mL | Cmin ([1]; Cycle 2 higher dose 10, 10, 20 mg/kg, Day 14, N = 15, mean): 6500 ng/mL | Cmax [1, 6]: 16000 ng/mL | AUC(0-t) [1, 6]: 145 µg·h/mL | Cmax [1, 7]: 13000 ng/mL | AUC(0-t) [1, 7]: 124 µg·h/mL | Cmax [1, 8]: 41000 ng/mL | AUC(0-t) [1, 8]: 435 µg·h/mL | Cmax [1, 9]: 36000 ng/mL | AUC(0-t) [1, 9]: 417 µg·h/mL | Patients reporting decrease in cough [2]: 6 | Patients reporting decreased mucus thickness and easier clearing of mucus [2]: 10 | Patients reporting general improvements in well being [2]: 6 | Drug accumulation / induction of metabolism ([3]; 27-day treatment interval between sampling periods): neither evidence of drug accumulation nor evidence of decreased drug levels due to the induction of metabolism | Cmin ([3]; Day 1, N = 6, mean): 500 ng/mL | Cmin ([3]; Day 27, N = 6, mean): 600 ng/mL | Severity of adverse events and laboratory abnormalities ([4]; 26 boys, low (n=6) or mid (n=20) dose, 28 days oral): mild-moderate | Dose relation of adverse events and laboratory abnormalities ([4]; low 4, 4, 8 mg/kg versus mid 10, 10, 20 mg/kg): no dose-related changes in frequency or severity | Plasma exposures over time ([5]; Day 1 and Day 28 PK): stable | Plasma exposures relative to treated healthy adult volunteers and cystic fibrosis patients ([5]; boys with DMD): lower | Plasma exposures relative to those associated with maximal preclinical activity ([5]; low and mid dose levels): did not achieve plasma exposures associated with maximal preclinical activity | Serum CK levels during administration (serum CK): decreased significantly
